Measured values from patent publication US20210378193A1, “HAPLOID EMBRYOGENESIS” (STICHTING WAGENINGEN RESEARCH, priority 2013, published 2021).

Key:
[1] = system: B. rapa genotypes microspore culture; test: embryogenic cell divisions in Brassica rapa microspore culture; type: cell-based; conditions: 0.5 μM TSA, six B. rapa genotypes
Method: The following B. rapa genotypes were tested in an experiment that measured t h e embryogenic activity of 0.5 μM TSA in microspore culture against respective controls in the absence of TSA: Microspores were obtained from donor buds. Donor buds were ranked from youngest (1) tooldest (3) developmental stage, whereby (2) is an intermediate stage. […] The data also indicates how genotype and/or donor bud stage may influence the level of embryogenic cell divisions caused by enhancement with TSA treatment over controlsin […]. Such stage-dependency is a normal observation in this tissue culture system.

[2] = system: B. napus microspore culture; test: embryo yield in B. napus microspore culture; type: cell-based, Brassica napus
Method: Brassica napus L. DH12075 was used as a donor plant for microspore embryo culture. The B. napus plant growth and microspore isolation procedures were performed as described in Custers, J. B. M. (2003) “Microspore culture in rapeseed (Brassica napus L.)” in Doubled haploid production in crop plants: a manual, M. Maluszynski, K. J. Kasha, B. P. Forster, and I. Szarejko, eds (Dordrecht: Kluwer Academic Publishers), pp. 185-193. Flower buds for microspore culture were grouped by size (measured from the tip of the flower bud to the bottom of the sepal), ranging from 3.0 to 3.5 mm for DH4079 and from 2.6 to 4.0 mm for DH12075. The microspores were isolated and cultured in NLN-13 medium (see Lichter, R. (1982) […]. For induction of embryogenesis, microspores were cultured in the dark at 33° C. for 20 hours and subsequently transferred to 25° C. Non-induced microspore cultures were cultured continuously at 25° C. or 18° C. Trichostatin A (TSA, Sigma-Aldrich) was prepared in DMSO. Freshly isolated microspores were inoculated in a medium containing TSA or the same volume of DMSO as a control and cultured for 20 hours at the temperature indicated for each experiment. After this period, the cultures were centrifuged at 200 g for 3 min, resuspended in fresh NLN-13 medium without TSA, and transferred to 25° C.
The developmental fate of heat-stressed control cultures and cultures exposed to both heat-stress and TSA was followed by examining older cultures in more detail. […] Heat-stressed microspores and pollen were treated with a range of TSA concentrations, and the cultures examined after five and 15 days using DAPI staining to characterize the different multicellular structures that developed.
Microspores and immature pollen from different bud sizes were cultured in the presence of different concentrations of TSA compared with the equivalent volume of DMSO (control) at three temperatures: A-D=33° C., D-F=25° C., G-H=18° C. For each treatment, the samples are ranked from left to right along the z-axis according to the developmental stage of the microspores and pollen. […] The microspores and pollen were categorized as follows: mid-uninucleate microspore (white bars), late-uninucleate microspore (grey bars), and binucleate pollen (black bars) stages. […] The percentage of cells that divided gametopyhytically or sporophytically after five days of microspore culture at B=33° C., E=25° C., H=18° C. […] Dead microspores and pollen were not counted. […]

CC(/C=C/C(=O)NO)=C\[C@@H](C)C(=O)c1ccc(N(C)C)cc1 [TSA, trichostatin A]
total number of embryogenic cells per bud size compared to the control [1]: greatly increases
embryo production ([2]; culture at 25° C. (no heat stress), practically none in controls): Up to 0.2%
development of histodifferentiated embryos ([2]; cultured at 18° C.): did not develop
embryo abundance relative to control cultures ([2]; heat-stressed cultures, 0.05 μM TSA): up to five times more abundant than in control cultures
heart to cotyledon stage embryos ([2]; heat-stressed cultures, 0.5 μM TSA, 15 days, control up to 0.3%): up to 0.05%
